A short description of data set [1]: Experiment 3: pharmacokinetic evaluation in CD-1 mice (IV and oral). Type of data set: in vivo. The conditions noted are these: mouse, plasma; for clearance / half-life / Vd: IV 1 mg/kg; for clearance: read-out: Clearance rate CL; for half-life: read-out: Half life T1/2 (IV, h) (converted); for Vd: read-out: Volume of distribution at steady state Vdss; for bioavailability: PO 2 mg/kg vs IV 1 mg/kg, read-out: Bioavailability F (%); for AUC(0-t): PO 2 mg/kg, read-out: Area under drug-time curve AUC0-last PO; for Cmax: single dose, oral 2 mg/kg, read-out: Peak concentration Cmax. How it is done: Experiment 3: Pharmacokinetic Evaluation of Compounds
Experimental purpose: To test the pharmacokinetics of compounds in CD-1 mice in vivo
CD-1 mice (male/female, 7 to 9 weeks old, Shanghai SLAC)
The pharmacokinetic characteristics of the compounds in rodents after intravenous injection and oral administration were tested according to the standard protocol. In the experiment, the candidate compound was formulated into clear solutions, and a single intravenous injection and oral administration were given to mice. The vehicle for intravenous injection and oral administration was a mixed vehicle composed of 10% dimethyl sulfoxide and 90% hydroxypropyl β-cyclodextrin with a content of 10%. In this project, four male/female CD-1 mice were used. Two mice were injected intravenously at a dose of 1 mg/kg, and plasma samples were collected at 0.083, 0.25, 0.5, 1, 2, 4, 8, and 24 hours after administration; the other two were administered orally by gavage at a dose of 2 mg/kg, and plasma samples were collected at 0.25, 0.5, 1, 2, 4, 8, and 24 hours after administration. The samples were centrifuged at 3200 g for 10 minutes at 4° C., and plasma samples were obtained by separating the supernatant. A methanol solution containing internal standard with 20 times the volume of the sample was added thereto to precipitate the protein, and the mixture was centrifuged at 12000 g for 15 minutes at 4° C. 50 μL of the supernatant was taken and transferred to a 96-well plate and centrifuged again. The supernatant was taken for sampling. The plasma concentration was quantitatively analyzed using LC-MS/MS analysis method, and pharmacokinetic parameters, such as peak concentration (Cmax), clearance rate (CL), half-life (T1/2), volume of distribution at steady state (Vdss), area under drug-time curve (AUC0-last), bioavailability (F).

Data set [2] has as its system human small cell lung cancer NCI-H1417 cell subcutaneous xenograft tumor. Nature of the data set: Experiment 5: in vivo pharmacodynamic study, NCI-H1417 subcutaneous xenograft tumor in CB17-SCID mice. The conditions noted are these: 10 mg/kg, p.o.; for Mean tumor volume ± SEM (mm^3) (Day 28): day 28 after administration; for TGI (%): tumor volume at day 28. The source says: Experiment 5: In Vivo Pharmacodynamic Study of Compounds on CB17-SCID Mouse Model of Human Small Cell Lung Cancer NCI-H1417 Cell Subcutaneous Xenograft Tumor
The purpose of this experiment was to evaluate the in vivo efficacy of the compounds of the present disclosure on CB17-SCID mouse model of human small cell lung cancer NCI-H1417 cell subcutaneous xenograft tumor.
5.2 Experimental Animals: • Species: mice • Strain: CB17-SCID mice • Week age and weight: 6-8 weeks old, 18 to 22 grams • Gender: Female • Supplier: Beijing Vital River Laboratory Animal Technology Co., Ltd.
Human lung cancer cells NCI-H1417 were cultured in vitro in suspension in RPMI 1640 medium with 10% fetal bovine serum, 100 U/mL penicillin, and 100 μg/mL streptomycin at 37° C. in a 5% CO2 cell culture incubator. Routine digestion and passage treatment were performed twice a week. When the number of cells reached the required number, the cells were counted and resuspended in PBS at a density of 10×10^6 cells/200 μL.
0.2 mL of NCI-H1417 tumor cells (containing 10×10^6 cells) suspension (PBS: matrix gel=1:1) was subcutaneously inoculated on the right back of mice, and in pharmacodynamic experiments, on the 16th day after cell inoculation, when the average tumor volume reached 86 mm^3, the subjects were randomly grouped and the administration started.
The experimental vehicle was 5% dimethyl sulfoxide/95% (10% Solutol) solution. Preparation method: 3.8 mL of […] was taken and added to 34.2 mL of double-distilled water, 2 mL of dimethyl sulfoxide was added thereto, and the mixture was mixed well. The test substance was dissolved with the vehicle, prepared as a homogeneous solution of a certain concentration, and stored at 4° C.
The experimental indicator was to examine whether tumor growth was inhibited, delayed, or cured. The tumor diameter was measured twice a week using vernier calipers. The calculation formula of tumor volume is V=0.5a×b^2, wherein a and b represent the long and short diameters of the tumor respectively.
The tumor inhibitory efficacy of compounds was evaluated by TGI (%). TGI (%) reflects the tumor growth inhibition rate. Calculation of TGI (%): TGI (%)=[1−(Average tumor volume at the end of administration in a certain treatment group−Average tumor volume at the beginning of administration in this treatment group)/(Average tumor volume at the end of treatment in the vehicle control group−Average tumor volume at the beginning of treatment in the vehicle control group)]×100%.

The next data set deals with human LSD1 (Homo sapiens (Human), UniProt O60341). Nature of the data set: Experiment 1B: in vitro LSD1 enzyme activity, enzyme-coupled fluorescence (HRP/Amplex Red), H3(1-21)K4me2 peptide 10 μM (Reaction Biology). It counts as biochemical. The conditions noted are these: histone H3(1-21)K4me2 peptide 10 μM. Put shortly: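 Human LSD1 with 10 μM histone H3(1-21)K4me2 peptide; enzyme and substrate incubated 30 min before compound addition started the reaction. H2O2 detected via HRP/Amplex Red fluorescence (Ex/Em 535/590). IC50 from 10-point 3-fold dilutions starting at 10 μM.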

In the next data set the test system is NCI-H1417 cells. Nature of the data set: Experiment 2: inhibition of NCI-H1417 cell proliferation (CellTiter-Glo, 10 days). Type of data set: cell-based. The conditions noted are these: Homo sapiens, 240 h, 10 days incubation. Put shortly:
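Cells at 1000 per well exposed to 10-point 3-fold dilutions from 10 μM top concentration for 10 days. Viability by CellTiter-Glo luminescence; inhibition normalized to max/min controls, IC50 from four-parameter fit.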

Data set [3] addresses hERG potassium ion channels (Homo sapiens (Human), UniProt Q12809). Nature of the data set: Experiment 4: hERG potassium ion channel inhibition, automated patch clamp (Qpatch), CHO-hERG cells. Type of data set: cell-based. The conditions noted are these: highest test concentration 40 μM. How it is done: Experiment 4: hERG Potassium Ion Channel Inhibition Assay
Experimental purpose: To test the effects of the test examples on hERG potassium ion channels using an automated patch clamp method.
4.1.1 CHO-hERG cells were cultured in a 175 cm^2 culture flask. When the cell density grew from 60% to 80%, the culture medium was removed. The cells were washed once with 7 mL of PBS (Phosphate Buffered Saline), and then 3 mL of Detachin cell dissociation reagent was added thereto for digestion.
4.1.2 After the digestion was completed, 7 mL of culture medium was added thereto for neutralization, then the mixture was centrifuged, the supernatant was aspirated, and then 5 mL of culture medium was added thereto for resuspension to ensure a cell density of 2×10^6/mL to 5×10^6/ML.
The single-cell high-resistance sealing and whole-cell modeling formation processes were all automatically completed by the Qpatch instrument of the Shanghai Institute of Materia Medica, Chinese Academy of Sciences. After obtaining the whole-cell recording modeling, the cells were clamped at −80 mV, and before a 5-second +40 mV depolarizing stimulus was given, a 50-millisecond −50 mV prepulse was first given, then the voltage was repolarized to −50 mV and holden for 5 seconds, and finally returned to −80 mV. This voltage stimulus was applied every 15 seconds, recorded for 2 minutes, and then the extracellular fluid was recorded for 5 minutes, and then the administration process was initiated, with compound concentrations starting at the lowest test concentration. The voltage stimulus was given for 2.5 minutes for each test concentration, and after all concentrations had been continuously given, 3 μM the positive control compound, Cisapride, was given. At least 3 cells were tested per concentration (n≥3).
4.4.1 The compound stock solution was diluted with DMSO, and 20 μL of DMSO solution was added with 10 μL of the compound stock solution, and serially diluted 3-fold to 6 DMSO concentrations.
4.4.2 4 μL of 6 DMSO concentrations of compounds were taken respectively and added to 396 μL of extracellular fluid, and the mixture was diluted 100-fold to 6 intermediate concentrations, then 80 μL of 6 intermediate concentrations of compounds was taken and added to 320 μL of extracellular fluid, and the mixture was diluted 5-fold to the final test concentration.
4.4.3 The highest test concentration was 40 μM, and the concentrations were respectively 40, 13.3, 4.4, 1.48, 0.494, and 0.165 μM for a total of six concentrations.
4.4.5 The preparation of the compound was completed by the Bravo instrument throughout the dilution process.
Experimental data were analyzed by GraphPad Prism 5.0 software.

Where a name gives a salt, the structure may show the parent alone. Read-outs that look alike come from different tables or passages of the source.

The text below walks through data of patent US20240199571A1, “THIOPHENE COMPOUND AND APPLICATION THEREOF” (MEDSHINE DISCOVERY INC., priority 2021, published 2024).

Chain of hERG potassium ion channels (Q12809 whole entry): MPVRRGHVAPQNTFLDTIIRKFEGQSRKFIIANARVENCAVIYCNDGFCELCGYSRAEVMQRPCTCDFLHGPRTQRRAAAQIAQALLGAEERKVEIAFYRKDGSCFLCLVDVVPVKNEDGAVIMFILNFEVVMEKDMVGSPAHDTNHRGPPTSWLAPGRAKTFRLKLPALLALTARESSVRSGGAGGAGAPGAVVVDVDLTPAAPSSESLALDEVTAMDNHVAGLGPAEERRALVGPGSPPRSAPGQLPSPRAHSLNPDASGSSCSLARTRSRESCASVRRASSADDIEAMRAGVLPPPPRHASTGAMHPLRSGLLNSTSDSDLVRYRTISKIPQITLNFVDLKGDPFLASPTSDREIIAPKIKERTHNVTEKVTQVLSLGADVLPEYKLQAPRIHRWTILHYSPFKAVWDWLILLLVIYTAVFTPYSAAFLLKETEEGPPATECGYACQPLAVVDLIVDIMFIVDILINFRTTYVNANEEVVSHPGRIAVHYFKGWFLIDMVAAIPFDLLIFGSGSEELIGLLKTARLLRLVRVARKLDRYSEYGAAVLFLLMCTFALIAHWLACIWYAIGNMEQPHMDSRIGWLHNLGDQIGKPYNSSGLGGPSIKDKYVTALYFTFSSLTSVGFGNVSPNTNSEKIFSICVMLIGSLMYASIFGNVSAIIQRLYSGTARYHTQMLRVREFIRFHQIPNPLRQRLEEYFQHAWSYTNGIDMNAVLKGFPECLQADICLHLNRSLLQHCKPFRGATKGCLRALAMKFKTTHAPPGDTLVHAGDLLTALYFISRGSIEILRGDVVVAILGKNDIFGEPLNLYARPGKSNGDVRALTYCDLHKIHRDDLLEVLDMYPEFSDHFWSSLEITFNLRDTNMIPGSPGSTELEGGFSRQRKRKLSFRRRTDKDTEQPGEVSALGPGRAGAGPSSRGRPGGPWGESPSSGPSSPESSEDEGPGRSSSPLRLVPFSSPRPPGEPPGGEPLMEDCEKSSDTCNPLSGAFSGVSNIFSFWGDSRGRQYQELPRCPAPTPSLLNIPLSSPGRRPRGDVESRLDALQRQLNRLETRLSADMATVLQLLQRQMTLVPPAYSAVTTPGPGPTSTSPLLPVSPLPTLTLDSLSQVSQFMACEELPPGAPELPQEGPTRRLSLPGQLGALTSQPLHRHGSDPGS

One may read the bioavailability as dose-corrected exposure relative to a reference, in per cent. By IC50 is commonly meant the concentration that inhibits the measured activity by half. A lower IC50 goes with greater potency in that assay. As for `Cn1cc2cc(-c3sc(C(=O)N4CCC[C@@H](N)C4)cc3-c3ccc(C#N)c(F)c3)ccc2n1` [Hydrochloride of compound 36], in data set [1] (female CD-1 mice), the clearance worked out at 37.3 mL/min/kg, the half-life was 2.01 h, the Vd worked out at 4.71 L/kg and the bioavailability came to 49.6%. Moreover, in data set [1] (female CD-1 mice), the AUC(0-t) came out at 0.971 µM·h and the Cmax worked out at 224 nM. Also, in data set [1] (male CD-1 mice), the clearance turned out to be 31.5 mL/min/kg, the half-life was 2.1 h, the Vd amounted to 4.47 L/kg and the bioavailability turned out to be 33.9%. Besides, in data set [1] (male CD-1 mice), the AUC(0-t) was found to be 0.742 µM·h and the Cmax was 148 nM. Further, in data set [2] (BID), the “Mean tumor volume ± SEM (mm^3) (Day 28)” value was 53 ± 3 mm^3 and the “TGI (%)” value is listed as 109.13%. For the same compound, in data set [2] (QD), the “Mean tumor volume ± SEM (mm^3) (Day 28)” value stood at 87 ± 11 mm^3 and the “TGI (%)” value turned out to be 99.65%. On human LSD1, the half-maximal inhibitory concentration (IC50) was 3.44 nM. The same compound returned an IC50 in the data set on NCI-H1417 cells of 1.17 nM.

As to `N#Cc1ccc(-c2cc(C(=O)N3CCC[C@@H](N)C3)sc2-c2ccc3nn([C@H]4COCC[C@@H]4O)cc3c2)cc1F` [Hydrochloride of compound 88], the IC50 was 21900 nM in data set [3], 87.6 nM against human LSD1 and 39.4 nM in the data set with NCI-H1417 cells.

As to `N#Cc1ccc(-c2cc(C(=O)N3CCC[C@@H](N)C3)sc2-c2ccc3nn(CC4(O)CC4)cc3c2)cc1F` [Hydrochloride of compound 89], the IC50 came out at 22700 nM in data set [3], 15.2 nM against human LSD1 and 1.61 nM in the data set on NCI-H1417 cells.

Turning to `N#Cc1ccc(-c2cc(C(=O)N3CCC[C@@H](N)C3)sc2-c2ccc3c(c2)nnn3[C@H]2COCC[C@@H]2O)cc1F` [Hydrochloride of compound 90], the IC50 in data set [3] was over 40000 nM; on human LSD1, 37.3 nM; with NCI-H1417 cells, 37.6 nM.

Turning to `CC(C)(O)Cn1nnc2cc(-c3sc(C(=O)N4CCC[C@@H](N)C4)cc3-c3ccc(C#N)c(F)c3)c(F)c(F)c21` [Hydrochloride of compound 91], the IC50 was over 40000 nM in data set [3], 13 nM on human LSD1 and 0.83 nM in the data set on NCI-H1417 cells.

Consider `N#Cc1ccc(-c2cc(C(=O)N3CCC[C@@H](N)C3)sc2-c2cc3cn([C@H]4COCC[C@@H]4O)nc3cc2F)cc1F` [Hydrochloride of compound 94], for which the results for the IC50 (in data set [3]; on human LSD1; in the data set with NCI-H1417 cells) were over 40000 nM, 98.4 nM and 32.8 nM, respectively.

Take `CC(C)(CO)n1nnc2cc(-c3sc(C(=O)N4CCC[C@@H](N)C4)cc3-c3ccc(C#N)c(F)c3)c(F)c(F)c21` [Hydrochloride of compound 99]: in data set [1] (male CD-1 mice), the clearance stood at 42 mL/min/kg, the half-life was 2.48 h, the Vd was 7.23 L/kg and the bioavailability was determined as 47.7%. Further, in data set [1] (male CD-1 mice), the AUC(0-t) was 0.625 µM·h and the Cmax amounted to 145 nM. Besides, in data set [3], the IC50 stood at 27000 nM. This compound yielded an IC50 on human LSD1 of 17.4 nM. In the data set with NCI-H1417 cells, this compound yielded a 50% inhibitory concentration (IC50) of 4.26 nM.

`CC(C)(O)Cn1nnc2cc(-c3sc(C(=O)N4CCCNCC4)cc3-c3ccc(C#N)c(F)c3)c(F)c(F)c21` [Hydrochloride of compound 111]: the IC50 in data set [3] was determined as 21500 nM; at human LSD1, 17.6 nM; with NCI-H1417 cells, 2.12 nM.

Consider `CN[C@@H]1CCCN(C(=O)c2cc(-c3ccc(C#N)c(F)c3)c(-c3ccc4c(c3)nnn4CC(C)(C)O)s2)C1` [Hydrochloride of compound 121], for which the “Mean tumor volume ± SEM (mm^3) (Day 28)” value in data set [2] (QD) turned out to be 75 ± 4 mm^3. Besides, the “TGI (%)” value in data set [2] (QD) amounted to 103.19%. In addition, the IC50 in data set [3] was 20500 nM; against human LSD1, 14.3 nM; in the data set with NCI-H1417 cells it was 7.7 nM.
